Data from patent publication US10654816B2, “Compounds and compositions for treating conditions associated with NLRP activity” (NOVARTIS INFLAMMASOME RESEARCH, INC., priority 2017, dated 2020).

Test system: IL-1β production in PMA-differentiated THP-1 cells
Assay: IL-1β production in PMA-differentiated THP-1 cells stimulated with gramicidin (hTHP-1 assay, HTRF readout; Procedures 1-3)
Format: cell-based, human
Conditions: Homo sapiens, THP-1, hTHP-1 assay containing 2% fetal bovine serum; average; class symbols; read-out: hTHP-1 IC50 (Average IC50 of compounds in hTHP-1 assay)
Summary of the method: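 PMA-differentiated (20 ng/ml, 16-18 h) THP-1 cells in RPMI with 2% FBS, 50,000 cells/well, preincubated 1 h with compound (final 0.0017-100 μM, 0.37% DMSO), then stimulated with 5 μM gramicidin for 2 h. IL-1β in cell-free supernatant measured by HTRF (620/668 nm).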

Row | Compound | IC50 [nM]
1 | CC(C)(O)c1cc(S(N)(=O)=NC(=O)Nc2c3c(cc4c2CCC4)CCC3)nn1-c1ccccc1 (stereo not drawn) [Example 259, N′-((1,2,3,5,6,7-hexahydro-s-indacen-4-yl)carbamoyl)-5-(2-hydroxypropan-2-yl)-1-phenyl-1H-pyrazole-3-sulfonimidamide] | 200 to 1000
2 | CC(C)(O)c1ccc(S(N)(=O)=NC(=O)Nc2c3c(cc4c2CCC4)CCC3)cn1 (stereo not drawn) [Example 260, N′-((1,2,3,5,6,7-hexahydro-s-indacen-4-yl)carbamoyl)-6-(2-hydroxypropan-2-yl)pyridine-3-sulfonimidamide] | 200 to 1000
3 | C#CCCC(=O)N(C)Cc1ccc(S(N)(=O)=NC(=O)Nc2c3c(cc4c2CCC4)CCC3)cc1 (stereo not drawn) [Example 261, N-(4-(N′-((1,2,3,5,6,7-hexahydro-s-indacen-4-yl)carbamoyl)sulfamidimidoyl)benzyl)-N-methylpent-4-ynamide] | 1000 to 5000
4 | CC(C)(O)c1csc(S(N)(=O)=NC(=O)Nc2c3c(cc4c2CC4)CCC3)n1 (stereo not drawn) [Example 262, 4-(2-Hydroxypropan-2-yl)-N′-((2,4,5,6-tetrahydro-1H-cyclobuta[f]inden-3-yl)carbamoyl)thiazole-2-sulfonimidamide] | 8 to 40
5 | Cc1nc(C(C)(C)O)ccc1S(N)(=O)=NC(=O)Nc1c2c(cc3c1CCC3)CCC2 (stereo not drawn) [Example 264, N′-((1,2,3,5,6,7-hexahydro-s-indacen-4-yl)carbamoyl)-6-(2-hydroxypropan-2-yl)-2-methylpyridine-3-sulfonimidamide] | 1000 to 5000
6 | Cc1sc(S(N)(=O)=NC(=O)Nc2c3c(cc4c2CCC4)CCC3)nc1C(C)(C)O (stereo not drawn) [Example 265, N′-(1,2,3,5,6,7-hexahydro-s-indacen-4-ylcarbamoyl)-4-(2-hydroxypropan-2-yl)-5-methylthiazole-2-sulfonimidamide] | 40 to 200
7 | CC(=O)N(C)Cc1ccc(S(N)(=O)=NC(=O)Nc2c3c(cc4c2CCC4)CCC3)cc1 (stereo not drawn) [Example 268, N-(4-(N′-(1,2,3,5,6,7-hexahydro-s-indacen-4-ylcarbamoyl)sulfamimidoyl)benzyl)-N-methylacetamide] | 1000 to 5000
8 | CN1CCc2cc(S(N)(=O)=NC(=O)Nc3c4c(cc5c3CCC5)CCC4)ccc2C1 (stereo not drawn) [Example 270, N′-((1,2,3,5,6,7-hexahydro-s-indacen-4-yl)carbamoyl)-2-methyl-1,2,3,4-tetrahydroisoquinoline-6-sulfonimidamide] | 1000 to 5000
9 | CN1CCc2ccc(S(=N)(=O)NC(=O)Nc3c4c(cc5c3CCC5)CCC4)cc2C1 (stereo not drawn) [Example 271, N-(1,2,3,5,6,7-hexahydro-s-indacen-4-ylcarbamoyl)-2-methyl-1,2,3,4-tetrahydroisoquinoline-7-sulfonimidamide] | 1000 to 5000
10 | COc1cc(CN(C)C)ccc1S(N)(=O)=NC(=O)Nc1c2c(cc3c1CCC3)CCC2 (stereo not drawn) [Example 272, 4-((Dimethylamino)methyl)-N′-((1,2,3,5,6,7-hexahydro-s-indacen-4-yl)carbamoyl)-2-methoxybenzenesulfonimidamide] | 200 to 1000
11 | Cn1ncc2cc(S(N)(=O)=NC(=O)Nc3c4c(cc5c3CCC5)CCC4)ccc21 (stereo not drawn) [Example 273, N′-(1,2,3,5,6,7-hexahydro-s-indacen-4-ylcarbamoyl)-1-methyl-1H-indazole-5-sulfonimidamide] | 5000 to 30000
12 | CC(C)Cc1ccc(S(N)(=O)=NC(=O)Nc2c3c(cc4c2CCC4)CCC3)cn1 (stereo not drawn) [Example 275, N′-(1,2,3,5,6,7-hexahydro-s-indacen-4-ylcarbamoyl)-6-isobutylpyridine-3-sulfonimidamide] | 1000 to 5000
13 | CN(C)Cc1ccc(S(N)(=O)=NC(=O)Nc2c3c(cc4c2CCC4)CCC3)cn1 (stereo not drawn) [Example 276, 6-((Dimethylamino)methyl)-N′-(1,2,3,5,6,7-hexahydro-s-indacen-4-ylcarbamoyl)pyridine-3-sulfonimidamide] | 200 to 1000
14 | CN(C)Cc1ccc(S(N)(=O)=NC(=O)Nc2c3c(cc4c2CCC4)CCC3)cc1F (stereo not drawn) [Example 280, 4-((dimethylamino)methyl)-3-fluoro-N′-((1,2,3,5,6,7-hexahydro-s-indacen-4-yl)carbamoyl)benzenesulfonimidamide] | 200 to 1000
15 | CC(C)(O)c1cc(F)c(S(N)(=O)=NC(=O)Nc2c3c(cc4c2CC4)CCC3)s1 (stereo not drawn) [Example 281, 3-fluoro-5-(2-hydroxypropan-2-yl)-N′-((2,4,5,6-tetrahydro-1H-cyclobuta[f]inden-3-yl)carbamoyl)thiophene-2-sulfonimidamide] | 8 to 40
17 | CC(C)c1nn(-c2ccccc2)c(C(C)C)c1NC(=O)N=S(N)(=O)c1cc(C(C)(C)O)cs1 (stereo not drawn) [Example 284, N′-((3,5-diisopropyl-1-phenyl-1H-pyrazol-4-yl)carbamoyl)-4-(2-hydroxypropan-2-yl)thiophene-2-sulfonimidamide] | 5000 to 30000
18 | CNCc1ccc(S(N)(=O)=NC(=O)Nc2c3c(cc4c2CCC4)CCC3)c(F)c1 (stereo not drawn) [Example 287, 2-fluoro-N′-((1,2,3,5,6,7-hexahydro-s-indacen-4-yl)carbamoyl)-4-((methylamino)methyl)benzene-sulfonimidamide] | 1000 to 5000
19 | CC(C)c1ccc(S(N)(=O)=NC(=O)Nc2c3c(cc4c2CCC4)CCC3)cn1 (stereo not drawn) [Example 288, N′-((1,2,3,5,6,7-hexahydro-s-indacen-4-yl)carbamoyl)-6-isopropylpyridine-3-sulfonimidamide] | 1000 to 5000
20 | CCc1ccc2cn[nH]c2c1NC(=O)N=S(N)(=O)c1cnc(C(C)(C)O)s1 (stereo not drawn) [Example 290, N′-((6-ethyl-1H-indazol-7-yl)carbamoyl)-2-(2-hydroxypropan-2-yl)thiazole-5-sulfonimidamide] | 1000 to 5000
21 | Cc1ccc(-c2ccc(NC(=O)N=S(N)(=O)c3ncc(C(C)(C)O)s3)c3c2CCC3)cc1C (stereo not drawn) [Example 426, 1-{Amino[5-(2-hydroxypropan-2-yl)-1,3-thiazol-2-yl]oxo-λ^6-sulfanylidene}-3-[7-(3,4-dimethylphenyl)-2,3-dihydro-1H-inden-4-yl]urea] | 5000 to 30000
22 | Cc1ccc(-c2c3c(c(NC(=O)N=S(N)(=O)c4ncc(C(C)(C)O)s4)c4c2CCC4)CCC3)cc1C (stereo not drawn) [Example 427, 1-{Amino[5-(2-hydroxypropan-2-yl)-1,3-thiazol-2-yl]oxo-λ^6-sulfanylidene}-3-[8-(3,4-dimethylphenyl)-1,2,3,5,6,7-hexahydro-s-indacen-4-yl]urea] | 5000 to 30000
23 | Cc1nc(C)c(S(N)(=O)=NC(=O)Nc2c(C(C)C)cc(F)cc2C(C)C)s1 (stereo not drawn) [Example 428, 3-[amino(dimethyl-1,3-thiazol-5-yl)oxo-λ^6-sulfanylidene]-1-[4-fluoro-2,6-bis(propan-2-yl)phenyl]urea] | 5000 to 30000
24 | CC(C)c1cc(F)cc(C(C)C)c1NC(=O)N=S(N)(=O)c1cnc2c(cnn2C)c1 (stereo not drawn) [Example 430, 3-[amino({1-methyl-1H-pyrazolo[3,4-b]pyridin-5-yl})oxo-λ^6-sulfanylidene]-1-[4-fluoro-2,6-bis(propan-2-yl)phenyl]urea] | 5000 to 30000
25 | CC(C)c1cc(F)cc(C(C)C)c1NC(=O)N=S(N)(=O)c1cccc2c(N(C)C)cccc12 (stereo not drawn) [Example 431, 1-{amino[5-(dimethylamino)naphthalen-1-yl]oxo-λ^6-sulfanylidene}-3-[4-fluoro-2,6-bis(propan-2-yl)phenyl]urea] | 5000 to 30000

Same assay, conditions: Homo sapiens, THP-1, hTHP-1 assay containing 2% fetal bovine serum; average; given as bound; read-out: hTHP-1 IC50 (Average IC50 of compounds in hTHP-1 assay)

Row | Compound | IC50 [nM]
26 | CC(C)Cc1ccc(S(N)(=O)=NC(=O)Nc2c3c(cc4c2CCC4)CCC3)cc1 (stereo not drawn) [Example 277, N′-(1,2,3,5,6,7-hexahydro-s-indacen-4-ylcarbamoyl)-4-isobutylbenzenesulfonimidamide] | > 30000
27 | Cc1cc(NC(=O)N=S(N)(=O)c2ccc(C(C)(C)O)s2)cc(C)n1 (stereo not drawn) [compound 78, N-((2,6-dimethylpyridin-4-yl)carbamoyl)-5-(2-hydroxypropan-2-yl)thiophene-2-sulfonimidamide] | > 30000
